Measurements as given in patent US8309611B2, “Methods and compositions for treating lung cancer” (Golden Biotechnology Corporation, priority 2011, dated 2012).
≈ marks a conversion by molar mass, not a printed value. Like-named read-outs stand apart in the source and are kept apart here.

How the values were obtained:
A549 = assay: MTT cell survival assay, A549; assay type: cell-based; conditions: Homo sapiens
Description: (§1) The NCI anti-cancer drug screen model was adopted to test anti-cancer effect of the exemplary compounds from Example 1. The isolated compound 1 from Example 1 was added into the culture media of human lung-cancer cells, A549, NCI-H460, CL1-0, CL1-5 or DMS 114, to test for tumor cell survival (either by MTT assay or colony formation assay). Compounds 4, 5, 6, and 7 were used in MTT assay against A549.
(§2) A549, CL1-0, and CL1-5 cells are human lung adenocarcinoma cell lines. CL1-0 cells are minimally invasive sub-lines with low migration. CL1-5 cell line, on the other hand, is highly invasive with high migration ability. The NCI-H460 cell line is derived from human large cell lung cancer, which is one of the major types of non-small cell lung carcinoma. DMS 114 is small cell lung cancer cell line, and was obtained from the American Type Culture Collection (Manassas, Va.).
MTT assay is commonly used to determine cell proliferation, percent of viable cells, and cytotoxicity. MTT (3-[4,5-dimethylthiazol-2-yl]2,5-diphenyltetrazolium bromide) is a yellow dye, which can be absorbed by the living cells and be reduced to purplish blue formazan crystals by succinate tetrazolium reductase in mitochondria. Formazan formation can therefore be used to assess and determine the survival rate of cells.
A549, NCI-H460, CL1-0, CL1-5 and DMS 114 cells were suspended and cultured in 10% fetal bovine serum (Life Technologies Inc.) containing RPM1-1640 culture medium that also includes 1% penicillin and 1% streptomycin. Human bronchial epithelium cell line, BEAS-2B was used as a control. The BEAS-2B cell line was cultured in LHC-9 serum-free medium. All these cell lines were incubated under 5% CO2, 37° C. for 24 hours. After cell proliferation, the cells were washed once with PBS, treated with the trypsin-EDTA, and then centrifuged at 1,200 rpm for 5 minutes to separate cells from supernatant. The cells were re-suspended in fresh culture medium (10 mL) and placed in 96 well plates.
To each of the 96 well plates containing A549, NCI-H460, CL1-0, CL1-5, DMS 114 or BEAS-2B, 0.03, 0.1, 0.3, 1 and 3 μg/ml of compound 1 were add. The 96 well plates were incubated at 37° C., 5% CO2 for 48 hours. Subsequently, in the dark environment to each well of the plates were added 2.5 mg/ml of MTT. The reaction was terminated by addition of 100 ul of lysis buffer after 4 hours. The survival rate of cells was calculated based on the measurement of absorption at the 570 nm wavelength by enzyme immunoassay analyzer.

NCI-H460 = assay: MTT cell survival assay, NCI-H460; assay type: cell-based; conditions: Homo sapiens, 48 hours, read-out: IC50 (μg/ml), in vitro cell survival rate test, NCI-H460
Description: as §1, §2
(§3) MTT assay is commonly used to determine cell proliferation, percent of viable cells, and cytotoxicity. […]
(§4) To each of the 96 well plates containing A549, NCI-H460, CL1-0, CL1-5, DMS 114 or BEAS-2B, 0.03, 0.1, 0.3, 1 and 3 μg/ml of compound 1 were add. […] The survival rate of cells was calculated based on the measurement of absorption at the 570 nm wavelength by enzyme immunoassay analyzer.

[1] = Drug distribution in organs analysis (LC/MS/MS); assay type: in vivo, CD-1 male mice; conditions: CD-1 mice, iv 2 mg/Kg, 0.25-4 hours, plasma, kidney, small and large intestine
Description: Experiments described herein were performed on CD-1 male mice (average weight 24±2 grams, provided by BioLasco, Taiwan). The mice were injected intravenously with a solution of compound 1 in 5% ethanol and 30% PEG400 (2 mg/Kg body weight). After 0.25, 0.5, 1, 2, 4 hours of the iv injection, 0.5 ml of blood was collected via cardiac puncture. The bloods were placed in a centrifuge tube containing K-EDTA and centrifuged for 15 min at 4° C. under 1500 g to produce supernatants (plasma sample). At the same time points, lung, kidney, small intestine and large intestine of the mice were collected and preserved at −70° C. for similar analysis.
The concentration of compound 1 in various organ samples (i.e., plasma, large intestine, left kidney, lung, right kidney and small intestine) were analyzed by LC/MS/MS spectrometer (Waters Alliance 2790 LC and Micromass Quattro Ultima). For example, plasma sample was mixed with acetonitrile and then centrifuged to prepare supernatant that was analyzed by LC/MS/MS. The pharmacokinetic parameters were obtained by WinNonlin™ software by non-compartment method.

DMS 114 = assay: MTT cell survival assay, DMS 114; assay type: cell-based; conditions: Homo sapiens, 48 hours, read-out: IC50 against DMS 114
Description: as §1, §2, §3, §4

[2] = 48 hours, read-out: IC50 (μg/ml), in vitro cell survival rate test, A549

Structure (SMILES) | IC50 (A549; [2]) | IC50 (A549; read-out: IC50 on A549 (text)) | IC50 (NCI-H460) | Concentration in lung versus other organs (FIG. 10) [1] | IC50 (DMS 114)
COC1=C(OC)C(O)C(C/C=C(\C)CCC(=O)O)C(C)C1=O (stereo not drawn) [Compound 6] | 28 µg/mL | 28 µM |  |  | 
COC1=C(O)C(O)C(C/C=C(\C)CC/C=C(\C)CCC=C(C)C)C(C)C1=O (stereo not drawn) [Compound 4, 3,4-dihydroxy-2-methoxy-6-methyl-5-(3,7,11-trimethyldodeca-2,6,10-trienyl)cyclohex-2-enone] | 3.24 µg/mL |  |  |  | 
COC1=C(OC)C(O)C(C/C=C(\C)CC/C=C(\C)CCC=C(C)C)C(C)C1=O (stereo not drawn) [Compound 1, 4-hydroxy-2,3-dimethoxy-6-methyl-5-(3,7,11-trimethyldodeca-2,6,10-trienyl)cyclohex-2-enone] | 0.45 µg/mL |  | 0.82 µg/mL (≈ 2.1 µM) | significantly higher concentration than other organs | 16 µM
COC1=C(OC)C(O)C(C/C=C(\C)CC/C=C(\C)CCCC(C)(C)O)C(C)C1=O (stereo not drawn) [Compound 5, 4-hydroxy-5-(11-hydroxy-3,7,11-trimethyldodeca-2,6-dienyl)-2,3-dimethoxy-6-methylcyclohex-2-enone] | 13.5 µg/mL |  |  |  | 
COC1=C(OC)C(O)C(C/C=C(\C)CC/C=C(\C)CCCC(C)(C)OC)C(C)C1=O (stereo not drawn) [Compound 7, 4-hydroxy-2,3-dimethoxy-5-(11-methoxy-3,7,11-trimethyldodeca-2,6-dienyl)-6-methylcyclohex-2-enone] | 10.5 µg/mL |  |  |  | 
